Assay results as given in publication PMC4522185 (ChemistryOpen, 2015).
pIC50: −log10 of the molar value. In brackets after ≈: the same amount, converted by molar mass. Read-outs that look alike come from different tables or passages of the source.

Experiments:
[1] = physchem; details: pbs, pH 7.4, aqueous buffer
[2] = biological target: T1, Mtb 20S open-gate proteasome (Mycobacterium tuberculosis, UniProt P9WHT9); assay: biochemical
[3] = physchem; details: ch3cn+pbs (1+1), pH 7.4
[4] = biological target: human 20S proteasome (chymotrypsin-like activity, with PA28 activator) (Homo sapiens, UniProt P28074); assay: fluorogenic suc-LLVY-AMC cleavage; type: biochemical
Sequence of human 20S proteasome (chymotrypsin-like activity, with PA28 activator) (P28074 60-263): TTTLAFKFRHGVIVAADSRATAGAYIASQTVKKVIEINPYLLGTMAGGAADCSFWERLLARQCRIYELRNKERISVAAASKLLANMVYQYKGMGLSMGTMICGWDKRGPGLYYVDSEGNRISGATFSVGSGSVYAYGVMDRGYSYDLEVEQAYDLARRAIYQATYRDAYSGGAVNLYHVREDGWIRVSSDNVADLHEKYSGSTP
Sequence of human 20S proteasome (chymotrypsin-like activity, with PA28 activator) (P25786 whole entry partner): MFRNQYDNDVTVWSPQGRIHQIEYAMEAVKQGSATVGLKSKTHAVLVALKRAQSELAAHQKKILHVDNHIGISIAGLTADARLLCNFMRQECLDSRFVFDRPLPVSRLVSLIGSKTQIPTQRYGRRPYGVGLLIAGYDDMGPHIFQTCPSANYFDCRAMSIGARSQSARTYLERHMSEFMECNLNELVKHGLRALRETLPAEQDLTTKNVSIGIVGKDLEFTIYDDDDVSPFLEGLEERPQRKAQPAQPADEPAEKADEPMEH

[5] = physchem; details: pbs ph 7.4, pH 7.4
[6] = biological target: T1, Mtb 20S open-gate proteasome; assay: biochemical; remark: listed apart in the source
[7] = biological target: T1, Mtb 20S open-gate proteasome; assay: biochemical; remark: listed apart in the source
[8] = physchem; details: ch3cn+pbs (1+1), pH 7.4; remark: listed apart in the source
[9] = physchem; details: pbs, pH 7.4, aqueous buffer; remark: listed apart in the source

T1 sequence (P9WHT9 whole entry): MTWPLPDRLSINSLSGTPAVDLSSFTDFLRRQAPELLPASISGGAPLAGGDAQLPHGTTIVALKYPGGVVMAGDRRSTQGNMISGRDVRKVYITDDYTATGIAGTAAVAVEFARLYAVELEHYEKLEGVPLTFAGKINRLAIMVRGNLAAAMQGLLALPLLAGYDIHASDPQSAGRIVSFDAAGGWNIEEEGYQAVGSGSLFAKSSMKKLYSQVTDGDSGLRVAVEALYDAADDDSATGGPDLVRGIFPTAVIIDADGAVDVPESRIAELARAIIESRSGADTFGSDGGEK
T1 sequence (P9WHU1 whole entry partner): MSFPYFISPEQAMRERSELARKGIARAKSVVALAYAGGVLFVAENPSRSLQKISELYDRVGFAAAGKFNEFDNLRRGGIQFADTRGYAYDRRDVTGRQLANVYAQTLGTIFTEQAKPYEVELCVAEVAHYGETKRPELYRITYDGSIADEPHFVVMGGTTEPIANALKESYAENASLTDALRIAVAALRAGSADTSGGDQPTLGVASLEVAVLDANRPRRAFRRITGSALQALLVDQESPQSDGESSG

O=c1oc(-c2cnccn2)ns1 [compound 2]
solubility at 18 h [1]: 35.1 µM (≈ 6.36 µg/mL) | pIC50 [2]: 5.64 | remaining at 24 h, 50 µM [3]: 3.6%

COc1cccc(-c2nsc(=O)o2)c1 [compound 3]
solubility at 18 h [1]: 30.9 µM (≈ 6.47 µg/mL) | pIC50 [2]: 6.18 | remaining at 24 h, 50 µM [3]: 15.4%

O=c1oc(/C=C/c2ccccc2)ns1 [compound 17, (E)-5-Styryl-1,3,4-oxathiazol-2-one]
pIC50 [4]: < 4.00 | solubility at 18 h [1]: 19.1 µM (≈ 3.92 µg/mL) | pIC50 [2]: 6.38 | remaining at 24 h, 50 µM [3]: 38.7%

O=c1oc(/C=C/c2ccc(C(F)(F)F)cc2)ns1 [compound 18, (E)-5-(4-(Trifluoromethyl)styryl)-1,3,4-oxathiazol-2-one]
pIC50 [4]: < 4.00 | solubility at 18 h [1]: 0.1 µM (≈ 0.0273 µg/mL)

O=C(c1ccccc1)c1nsc(=O)o1 [compound 19, 5-Benzoyl-1,3,4-oxathiazol-2-one]
pIC50 [4]: 5.53 | solubility at 18 h [1]: 5.7 µM (≈ 1.18 µg/mL) | pIC50 [2]: 5.65 | remaining at 24 h, 50 µM [3]: 46.8%

O=c1oc(C#Cc2ccccc2)ns1 [compound 20, 5-(Phenylethynyl)-1,3,4-oxathiazol-2-one]
pIC50 [4]: 5.38 | solubility at 18 h [1]: 24.9 µM (≈ 5.06 µg/mL) | pIC50 [2]: 5.99 | remaining at 24 h, 50 µM [3]: 89.6%

O=c1oc(/C=C/C(F)(F)F)ns1 [compound 22, (E)-5-(3,3,3-Trifluoroprop-1-en-1-yl)-1,3,4-oxathiazol-2-one]
pIC50 [4]: < 4.00 | solubility at 18 h [1]: 44.1 µM (≈ 8.69 µg/mL) | remaining at 24 h, 50 µM [3]: 79.9%

O=c1onc(-c2ccccc2)o1 [compound 24, 3-Phenyl-1,4,2-dioxazol-5-one]
pIC50 [4]: < 4.00 | solubility at 18 h [1]: 7.6 µM (≈ 1.24 µg/mL) | remaining at 24 h, 50 µM [3]: 8.5%

O=c1onc(/C=C/c2ccccc2)o1 [compound 25]
solubility at 18 h [1]: 12.3 µM (≈ 2.33 µg/mL)

COc1ccc(/C=C/c2nsc(=O)o2)cc1 [compound 28, (E)-5-(4-Methoxystyryl)-1,3,4-oxathiazol-2-one]
pIC50 [4]: 5.07 | remaining at 24 h, 50 µM [5]: 1.5% | pIC50 [6]: 5.87

O=c1oc(/C=C/c2ccncc2)ns1 [compound 49, (E)-5-(2-(Pyridin-4-yl)vinyl)-1,3,4-oxathiazol-2-one]
pIC50 [7]: 5.56 | pIC50 [4]: 4.11 | remaining at 24 h, 50 µM [8]: 91.6% | solubility at 18 h [9]: 84.7 µM (≈ 17.5 µg/mL)

COc1ncccc1/C=C/c1nsc(=O)o1 [compound 50, (E)-5-(2-(2-Methoxypyridin-3-yl)vinyl)-1,3,4-oxathiazol-2-one]
pIC50 [4]: 4.53 | remaining at 24 h, 50 µM [8]: 97.7% | solubility at 18 h [9]: 2.1 µM (≈ 0.496 µg/mL)

O=c1oc(/C=C/c2cccs2)ns1 [compound 51, (E)-5-(2-(Thiophen-2-yl)vinyl)-1,3,4-oxathiazol-2-one]
pIC50 [7]: 5.68 | pIC50 [4]: 4.73 | remaining at 24 h, 50 µM [8]: 97.6% | solubility at 18 h [9]: 22.6 µM (≈ 4.77 µg/mL)

O=c1oc(/C=C/c2ccsc2)ns1 [compound 52, (E)-5-(2-(Thiophen-3-yl)vinyl)-1,3,4-oxathiazol-2-one]
pIC50 [7]: 5.94 | pIC50 [4]: 4.95 | remaining at 24 h, 50 µM [8]: 99.1% | solubility at 18 h [9]: 19.7 µM (≈ 4.16 µg/mL)

O=Cc1ccc(/C=C/c2nsc(=O)o2)o1 [compound 53, (E)-5-(2-(2-Oxo-1,3,4-oxathiazol-5-yl)vinyl)furan-2-carbaldehyde]
pIC50 [7]: 6.13 | pIC50 [4]: 5.48 | remaining at 24 h, 50 µM [8]: 88.9% | solubility at 18 h [9]: 56.1 µM (≈ 12.5 µg/mL)

O=c1nc2c(/C=C/c3nsc(=O)o3)cccn2s1 [compound 56, (E)-5-(2-(2-Oxo-2 H-[1,2,4]thiadiazolo[2,3-a]pyridin-8-yl)vinyl)-1,3,4-oxathiazol-2-one]
solubility at 18 h [9]: 2.4 µM (≈ 0.67 µg/mL)

O=c1oc(/C=C/c2c[nH]c3ccccc23)ns1 [compound 57, 57]
pIC50 [4]: 5.30 | solubility at 18 h [9]: 4.1 µM (≈ 1 µg/mL)
